Each compound was assayed against T1, H3 receptors of the brain of the rat (Rattus norvegicus, UniProt Q9QYN8) (assay: Antagonism of the inhibition by exogenous histamine of release in rat cerebral cortex sections (central H3 receptors)). Settings: not given.
T1 construct: This method requires rat cerebral cortex sections; from tissue; host or cells: rat cerebral cortex sections
T1 sequence (Q9QYN8 whole entry): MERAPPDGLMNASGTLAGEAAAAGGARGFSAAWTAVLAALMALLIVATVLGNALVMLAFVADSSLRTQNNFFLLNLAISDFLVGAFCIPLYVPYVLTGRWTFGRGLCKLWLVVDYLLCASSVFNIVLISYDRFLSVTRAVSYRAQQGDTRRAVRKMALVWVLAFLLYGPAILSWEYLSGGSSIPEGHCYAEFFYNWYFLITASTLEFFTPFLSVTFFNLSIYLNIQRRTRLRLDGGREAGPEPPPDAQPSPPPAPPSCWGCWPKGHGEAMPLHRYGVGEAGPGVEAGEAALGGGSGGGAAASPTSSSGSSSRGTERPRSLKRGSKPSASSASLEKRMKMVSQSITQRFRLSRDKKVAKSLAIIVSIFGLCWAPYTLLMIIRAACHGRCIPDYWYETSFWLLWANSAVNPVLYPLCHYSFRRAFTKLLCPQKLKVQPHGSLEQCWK
Assay type: cell-based
Excerpt: This method requires rat cerebral cortex sections and has made possible the pharmacological characterization of the H3 receptors (Nature, 1987, 327, 117-123).
With `CC(CC(=O)NCCCc1c[nH]cn1)c1ccccc1` (racemic) [Example 15, (R,S)-(+)-N-(3-(1H-Imidazol-4-yl)propyl)-3-phenylbutanamide] the Ki was 35 nM. In the case of `c1ccc2sc(NCCc3c[nH]cn3)nc2c1` [Example 91, 2-{[2-(1H-Imidazol-4-yl)ethyl]amino}benzothiazole], the Ki is reported as 380 nM. Compound `Clc1ccc(CCCOCCCc2c[nH]cn2)cc1` [Example 85, 3-(4-Chlorophenyl)propyl 3-(1H-imidazol-4-yl)propyl ether] has a Ki of 13 ± 4 nM. `Clc1ccc(COCCCc2c[nH]cn2)cc1` [Example 86, (4-Chlorophenyl)methyl 3-(1H-imidazol-4-yl)propyl ether] was tested, and the Ki was 18 nM. For `O=C(CCc1ccccc1)NCCCc1c[nH]cn1` [Example 2, N-(3-(1H-Imidazol-4-yl)propyl)-3-phenylpropanamide], the Ki was 49 nM. In the case of `O=C(CCCC1CCCCC1)NCCCc1c[nH]cn1` [Example 7, N-(3-(1H-Imidazol-4-yl)propyl)-4-cyclohexylbutanamide], the Ki is reported as 59 nM. In the case of `c1ccc(CCCOCCCc2c[nH]cn2)cc1` [Example 45, 3-Phenylpropyl 3-(1H-imidazol-4-yl)propyl ether], the Ki is reported as 17 ± 3 nM. For `O=C(CCCc1ccccc1)CCCc1c[nH]cn1` [Example 49, 1-(1H-Imidazol-4-yl)-7-phenylheptan-4-one], the Ki was 20 nM. Work on `O=C(CCC1CCCC1)OCCCc1c[nH]cn1` [Example 24, 3-(1H-Imidazol-4-yl)propyl ester of 3-cyclopentylpropanoic acid] yielded a Ki of 3 nM. In the case of `N#CN=C(NCCCc1cnc[nH]1)NCC1CCCCC1` [Example 51, N-Cyano-N'-[3-(1H-imidazol-4-yl)propyl]-N"-cyclohexylmethylguanidine], the Ki is reported as 20 nM. `Brc1ccc(CCCOCCCc2c[nH]cn2)cc1` [Example 38, 3-(4-Bromophenyl)propyl 3-(1H-imidazol-4-yl)propyl ether] was tested, and the Ki was 15 ± 4 nM. Work on `O=[N+]([O-])c1ccc(NCCc2c[nH]cn2)nc1` [Example 94, 2-{[2-(1H-Imidazol-4-yl)ethyl]amino}-5-nitropyridine] yielded a Ki of 38 nM. Work on `S=C(CCC1CCCC1)NCCCc1c[nH]cn1` [Example 22, N-(3-(1H-Imidazol-4-yl)propyl)-3-cyclopentylpropanethioamide] yielded a Ki of 11 nM. With `Fc1ccc(CCCOCCCc2c[nH]cn2)cc1` [Example 88, 3-(4-Fluorophenyl)propyl 3-(1H-imidazol-4-yl)propyl ether] the Ki was 7 ± 2 nM. `O=C(CCC1CCCC1)NC/C=C/c1c[nH]cn1` [Example 19, (E)-N-(3-(1H-Imidazol-4-yl)allyl)-3-cyclopentylpropanamide] showed a Ki of 42 nM.

Same assay, conditions: read-out: Apparent dissociation constant (Ki) as antagonist of histamine on the H3 receptors of the brain of the rat; rat cerebral cortex sections; exogenous histamine 1 μM; Ki calculated from IC50 according to Cheng and Prusoff
`O=C(NCc1ccc([N+](=O)[O-])cc1)OCCCc1c[nH]cn1` [Example 67, 3-(1H-Imidazol-4-yl)propyl N-(4-nitrobenzyl)carbamate] gave a Ki of 15 nM. `FC(F)(F)c1ccc(OCCCc2c[nH]cn2)cc1` [Example 131, 4-[3-(4-Trifluoromethylphenoxy)propyl]-1H-imidazole] was tested, and the Ki was 14 ± 6 nM. In the case of `N#Cc1ccc(OCCCc2c[nH]cn2)cc1` [Example 130, 4-[3-(4-Cyanophenoxy)propyl]-1H-imidazole], the Ki is reported as 12 ± 3 nM. Work on `N#Cc1ccc(OCCc2c[nH]cn2)cc1` [Example 112, 4-[2-(4-Cyanophenoxy)ethyl]-1H-imidazole] yielded a Ki of 9 ± 5 nM. In the case of `O=C(NCC1CC1)OCCCc1c[nH]cn1` [Example 57, 3-(1H-Imidazol-4-yl)propyl N-(cyclopropylmethyl)carbamate], the Ki is reported as 52 nM. `O=C(NC(=O)c1ccccc1)OCCCc1c[nH]cn1` [Example 55, 3-(1H-Imidazol-4-yl)propyl N-benzoylcarbamate] gave a Ki of 95 nM. Compound `O=[N+]([O-])c1ccc(SCCc2c[nH]cn2)nc1` [Example 107, 2-{2-[1H-Imidazol-4-yl]ethylthio}-5-nitropyridine] has a Ki of 4.8 ± 0.9 nM. In the case of `CCCc1ccc(OCCc2c[nH]cn2)cc1` [Example 117, 4-[2-(4-Propylphenoxy)ethyl]-1H-imidazole], the Ki is reported as 19 ± 9 nM. For `O=[N+]([O-])c1ccc(OCCc2c[nH]cn2)cc1` [Example 110, 4-[2-(4-Nitrophenoxy)ethyl]-1H-imidazole], the Ki was 35 ± 6 nM. In the case of `CN(Cc1ccccc1)C(=O)OCCCc1c[nH]cn1` [Example 83, 3-(1H-Imidazol-4-yl)propyl N-benzyl-N-methylcarbamate], the Ki is reported as 42 nM. Work on `O=C(Nc1ccc(F)cc1)OCCCc1c[nH]cn1` [Example 73, 3-(1H-Imidazol-4-yl)propyl N-(4-fluorophenyl)carbamate] yielded a Ki of 24 ± 4 nM. `c1nc(CCCOCCCC2CCCCC2)c[nH]1` [Example 36, 3-Cyclohexylpropyl 3-(1H-imidazol-4-yl)propyl ether] gave a Ki of 20 ± 8 nM. In the case of `O=C(Nc1ccccc1)OCCCc1c[nH]cn1` [Example 61, 3-(1H-Imidazol-4-yl)propyl N-phenylcarbamate], the Ki is reported as 14 ± 8 nM. `c1ccc2cc(OCCc3c[nH]cn3)ccc2c1` [Example 125, 4-[2-(2-Naphthyloxy)ethyl]-1H-imidazole] showed a Ki of 90 ± 27 nM.

Same assay, conditions: read-out: Inhibition of release by exogenous histamine
With `NCCc1c[nH]cn1` [histamine, reference compound] the inhibition at 1 µM was ~50%.
